Results published in patent US11178869B2, “Microbiocidal quinoline (thio)carboxamide derivatives” (priority 2017, dated 2021).
Like-named read-outs stand apart in the source and are kept apart here.

Experiments:
[1] = system: Glomerella lagenarium (Colletotrichum lagenarium); assay: Glomerella lagenarium (Colletotrichum lagenarium) / liquid culture (anthracnose); format: cell-based; conditions: Colletotrichum orbiculare, read-out: disease control
Fusarium culmorum [2] = assay: microbe, parasite or virus in culture; format: cell-based; conditions: read-out: disease control
[3] = system: Botryotinia fuckeliana (Botrytis cinerea); assay: Botryotinia fuckeliana (Botrytis cinerea) / liquid culture (gray mould); format: cell-based; conditions: 72 h, 200 ppm, compared to untreated control, growth inhibition photometrically 3-4 days after application, read-out: disease control
[4] = system: Monographella nivalis (Microdochium nivale); assay: Monographella nivalis (Microdochium nivale) / liquid culture (foot rot cereals); format: cell-based; conditions: 200 ppm, compared to untreated control, growth inhibition photometrically 4-5 days after application, read-out: disease control
Fusarium culmorum [5] = assay: whole plant or invertebrate; format: in vivo, Fusarium culmorum on wheat spikelets cv. Monsun; conditions: in Triticum aestivum, 144 h, read-out: control of Fusarium culmorum
[6] = system: Magnaporthe grisea (Pyricularia oryzae); assay: microbe, parasite or virus in culture; format: cell-based; conditions: read-out: control of Magnaporthe grisea
[7] = 200 ppm, compared to untreated control, growth inhibition photometrically 3-4 days after application

Cc1cc(C)cc(C#CC(C)(C)NC(=O)c2cnc3c(F)cccc3c2)c1 [Compound F-30, N-[3-(3,5-dimethylphenyl)-1,1-dimethyl-prop-2-ynyl]-8-fluoro-quinoline-3-carboxamide]
≥ 80%: inhibition of growth at 200 ppm [1, 7] | inhibition of growth at 200 ppm (Fusarium culmorum [2]) | inhibition of growth at 200 ppm [3] | inhibition of growth at 200 ppm [4]

CC(C)(C#Cc1ccc(C(F)(F)F)cc1)NC(=O)c1cnc2c(F)cccc2c1 [Compound F-42, N-[1,1-dimethyl-3-[4-(trifluoromethyl)phenyl]prop-2-ynyl]-8-fluoro-quinoline-3-carboxamide]
≥ 80%: inhibition of growth at 200 ppm [1, 7] | inhibition of growth at 200 ppm (Fusarium culmorum [2]) | inhibition of growth at 200 ppm [3] | inhibition of growth at 200 ppm [4]

CC(C)(C#Cc1cccc(C#N)c1)NC(=O)c1cnc2c(F)cccc2c1 [Compound F-36, N-[3-(3-cyanophenyl)-1,1-dimethyl-prop-2-ynyl]-8-fluoro-quinoline-3-carboxamide]
≥ 80%: inhibition of growth at 200 ppm (Fusarium culmorum [2]) | inhibition of growth at 200 ppm [3] | inhibition of growth at 200 ppm [4]

Cc1ccc(C)c(C#CC(C)(C)NC(=O)c2cnc3c(F)cccc3c2)c1 [Compound F-22, N-[3-(2,5-dimethylphenyl)-1,1-dimethyl-prop-2-ynyl]-8-fluoro-quinoline-3-carboxamide]
≥ 80%: inhibition of growth at 200 ppm [1, 7] | inhibition of growth at 200 ppm (Fusarium culmorum [2]) | inhibition of growth at 200 ppm [3]

C[C@](CC#CC1CC1)(CC(F)(F)F)NC(=O)c1cnc2c(F)cccc2c1 [Compound G-2, N-[(1S)-4-cyclopropyl-1-methyl-1-(2,2,2-trifluoroethyl)but-3-ynyl]-8-fluoro-quinoline-3-carboxamide]
≥ 80%: inhibition of growth at 200 ppm (Fusarium culmorum [2]) | inhibition of growth at 200 ppm [3]

CC(C)(C#Cc1ccc(F)c(F)c1)NC(=O)c1cnc2c(F)cccc2c1 [Compound F-20, N-[3-(3,4-difluorophenyl)-1,1-dimethyl-prop-2-ynyl]-8-fluoro-quinoline-3-carboxamide]
≥ 80%: inhibition of growth at 200 ppm [1, 7] | inhibition of growth at 200 ppm (Fusarium culmorum [2]) | inhibition of growth at 200 ppm [3] | inhibition of growth at 200 ppm [4]

CC(C)(C#Cc1ccccc1C#N)NC(=O)c1cnc2c(F)cccc2c1 [Compound F-41, N-[3-(2-cyanophenyl)-1,1-dimethyl-prop-2-ynyl]-8-fluoro-quinoline-3-carboxamide]
≥ 80%: inhibition of growth at 200 ppm [1, 7] | inhibition of growth at 200 ppm (Fusarium culmorum [2]) | inhibition of growth at 200 ppm [3] | inhibition of growth at 200 ppm [4]

Cc1cc(C#N)ccc1C#CC(C)(C)NC(=O)c1cnc2c(F)cccc2c1 [Compound F-34, N-[3-(4-cyano-2-methyl-phenyl)-1,1-dimethyl-prop-2-ynyl]-8-fluoro-quinoline-3-carboxamide]
≥ 80%: inhibition of growth at 200 ppm (Fusarium culmorum [2]) | inhibition of growth at 200 ppm [3] | inhibition of growth at 200 ppm [4]

C[C@@](CC#CC1CC1)(CC(F)(F)F)NC(=O)c1cnc2c(F)cccc2c1 [Compound G-1, N-[(1R)-4-cyclopropyl-1-methyl-1-(2,2,2-trifluoroethyl)but-3-ynyl]-8-fluoro-quinoline-3-carboxamide]
≥ 80%: inhibition of growth at 200 ppm (Fusarium culmorum [2]) | inhibition of growth at 200 ppm [3] | inhibition of growth at 200 ppm [4]

Cc1cccc(C#CC(C)(C)NC(=O)c2cnc3c(F)cccc3c2)c1C [Compound F-26, N-[3-(2,3-dimethylphenyl)-1,1-dimethyl-prop-2-ynyl]-8-fluoro-quinoline-3-carboxamide]
≥ 80%: inhibition of growth at 200 ppm [1, 7] | inhibition of growth at 200 ppm (Fusarium culmorum [2]) | inhibition of growth at 200 ppm [3] | inhibition of growth at 200 ppm [4]

CC(C)(C#Cc1cc(F)cc(F)c1)NC(=O)c1cnc2c(F)cccc2c1 [Compound F-40, N-[3-(3,5-difluorophenyl)-1,1-dimethyl-prop-2-ynyl]-8-fluoro-quinoline-3-carboxamide]
≥ 80%: inhibition of growth at 200 ppm [1, 7] | inhibition of growth at 200 ppm (Fusarium culmorum [2]) | inhibition of growth at 200 ppm [3] | pest or weed control at 200 ppm (Fusarium culmorum [5]) | inhibition of growth at 200 ppm [4]

Cc1ccc(C#CC(C)(C)NC(=O)c2cnc3c(F)cccc3c2)c(C)c1 [Compound F-33, N-[3-(2,4-dimethylphenyl)-1,1-dimethyl-prop-2-ynyl]-8-fluoro-quinoline-3-carboxamide]
≥ 80%: inhibition of growth at 200 ppm [1, 7] | inhibition of growth at 200 ppm (Fusarium culmorum [2]) | inhibition of growth at 200 ppm [3] | inhibition of growth at 200 ppm [4]

COc1ccc(C(F)(F)F)cc1C#CC(C)(C)NC(=O)c1cnc2c(F)cccc2c1 [Compound F-43, 8-fluoro-N-[3-[2-methoxy-5-(trifluoromethyl)phenyl]-1,1-dimethyl-prop-2-ynyl]quinoline-3-carboxamide]
≥ 80%: inhibition of growth at 200 ppm [1, 7] | inhibition of growth at 200 ppm (Fusarium culmorum [2]) | inhibition of growth at 200 ppm [3]

CCC(C)(C#Cc1ccccc1)NC(=O)c1cc2cccc(F)c2nc1C (centres unmarked) [Compound F-16, N-(1-ethyl-1-methyl-3-phenyl-prop-2-ynyl)-8-fluoro-2-methyl-quinoline-3-carboxamide]
≥ 80%: inhibition of growth at 200 ppm [1, 7] | inhibition of growth at 200 ppm (Fusarium culmorum [2]) | inhibition of growth at 20 ppm [6] | inhibition of growth at 200 ppm [3] | pest or weed control at 200 ppm (Fusarium culmorum [5]) | inhibition of growth at 200 ppm [4]

CC(C)(C#Cc1ccccc1F)NC(=O)c1cnc2c(F)cccc2c1 [Compound F-18, 8-fluoro-N-[3-(2-fluorophenyl)-1,1-dimethyl-prop-2-ynyl]quinoline-3-carboxamide]
≥ 80%: inhibition of growth at 200 ppm [1, 7] | inhibition of growth at 200 ppm (Fusarium culmorum [2]) | inhibition of growth at 200 ppm [3] | inhibition of growth at 200 ppm [4]

COc1ccc(C#CC(C)(C)NC(=O)c2cnc3c(F)cccc3c2)cc1 [Compound F-28, 8-fluoro-N-[3-(4-methoxyphenyl)-1,1-dimethyl-prop-2-ynyl]quinoline-3-carboxamide]
≥ 80%: inhibition of growth at 200 ppm [1, 7] | inhibition of growth at 200 ppm (Fusarium culmorum [2]) | inhibition of growth at 200 ppm [3] | pest or weed control at 200 ppm (Fusarium culmorum [5]) | inhibition of growth at 200 ppm [4]

Cc1ccc(F)c(C#CC(C)(C)NC(=O)c2cnc3c(F)cccc3c2)c1 [Compound F-45, 8-fluoro-N-[3-(2-fluoro-5-methyl-phenyl)-1,1-dimethyl-prop-2-ynyl]quinoline-3-carboxamide]
≥ 80%: inhibition of growth at 200 ppm [1, 7] | inhibition of growth at 200 ppm (Fusarium culmorum [2]) | inhibition of growth at 200 ppm [3] | pest or weed control at 200 ppm (Fusarium culmorum [5]) | inhibition of growth at 200 ppm [4]

COc1ccccc1C#CC(C)(C)NC(=O)c1cnc2c(F)cccc2c1 [Compound F-37, 8-fluoro-N-[3-(2-methoxyphenyl)-1,1-dimethyl-prop-2-ynyl]quinoline-3-carboxamide]
≥ 80%: inhibition of growth at 200 ppm [1, 7] | inhibition of growth at 200 ppm (Fusarium culmorum [2]) | inhibition of growth at 200 ppm [3] | inhibition of growth at 200 ppm [4]

C#CCC(C)(CC(C)C)NC(=O)c1cnc2c(F)cccc2c1 (centres unmarked) [Compound E-2, 8-fluoro-N-(1-isobutyl-1-methyl-but-3-ynyl)quinoline-3-carboxamide]
≥ 80%: inhibition of growth at 200 ppm [1, 7] | inhibition of growth at 200 ppm (Fusarium culmorum [2]) | inhibition of growth at 200 ppm [3]

Cc1cccc(C#CC(C)(C)NC(=O)c2cnc3c(F)cccc3c2)c1 [Compound F-39, N-[1,1-dimethyl-3-(m-tolyl)prop-2-ynyl]-8-fluoro-quinoline-3-carboxamide]
≥ 80%: inhibition of growth at 200 ppm [1, 7] | inhibition of growth at 200 ppm (Fusarium culmorum [2]) | inhibition of growth at 200 ppm [3] | pest or weed control at 200 ppm (Fusarium culmorum [5]) | inhibition of growth at 200 ppm [4]

CCC(C)(C#Cc1ccccc1C)NC(=O)c1cc2cccc(F)c2nc1C (centres unmarked) [Compound F-14, N-[1-ethyl-1-methyl-3-(o-tolyl)prop-2-ynyl]-8-fluoro-2-methyl-quinoline-3-carboxamide]
≥ 80%: inhibition of growth at 200 ppm [1, 7] | inhibition of growth at 200 ppm (Fusarium culmorum [2]) | inhibition of growth at 20 ppm [6] | inhibition of growth at 200 ppm [3] | pest or weed control at 200 ppm (Fusarium culmorum [5])

Cc1ccc(C#N)cc1C#CC(C)(C)NC(=O)c1cnc2c(F)cccc2c1 [Compound F-19, N-[3-(5-cyano-2-methyl-phenyl)-1,1-dimethyl-prop-2-ynyl]-8-fluoro-quinoline-3-carboxamide]
≥ 80%: inhibition of growth at 200 ppm [1, 7] | inhibition of growth at 200 ppm (Fusarium culmorum [2]) | inhibition of growth at 200 ppm [3] | inhibition of growth at 200 ppm [4]

Cc1ccc(C#CC(C)(C)NC(=O)c2cnc3c(F)cccc3c2)cc1C [Compound F-32, N-[3-(3,4-dimethylphenyl)-1,1-dimethyl-prop-2-ynyl]-8-fluoro-quinoline-3-carboxamide]
≥ 80%: inhibition of growth at 200 ppm [1, 7] | inhibition of growth at 200 ppm (Fusarium culmorum [2]) | inhibition of growth at 200 ppm [3] | inhibition of growth at 200 ppm [4]

CC(C)(C#Cc1ccc(F)cc1)NC(=O)c1cnc2c(F)cccc2c1 [Compound F-27, 8-fluoro-N-[3-(4-fluorophenyl)-1,1-dimethyl-prop-2-ynyl]quinoline-3-carboxamide]
≥ 80%: inhibition of growth at 200 ppm [1, 7] | inhibition of growth at 200 ppm (Fusarium culmorum [2]) | inhibition of growth at 200 ppm [3] | inhibition of growth at 200 ppm [4]

COc1cc(C#CC(C)(C)NC(=O)c2cnc3c(F)cccc3c2)ccc1Cl [Compound F-38, N-[3-(4-chloro-3-methoxy-phenyl)-1,1-dimethyl-prop-2-ynyl]-8-fluoro-quinoline-3-carboxamide]
≥ 80%: inhibition of growth at 200 ppm [1, 7] | inhibition of growth at 200 ppm (Fusarium culmorum [2]) | inhibition of growth at 200 ppm [3] | inhibition of growth at 200 ppm [4]

CC#CC(C)(C)NC(=O)c1cnc2c(F)cccc2c1 [Compound F-53, N-(1,1-dimethylbut-2-ynyl)-8-fluoro-quinoline-3-carboxamide]
≥ 80%: inhibition of growth at 200 ppm [1] | inhibition of growth at 200 ppm (Fusarium culmorum [2])
